Measurements from patent US11413273B2, “Prophylactic or therapeutic agent for pulmonary hypertension comprising unsaturated 5-membered heterocycle-containing compound” (TOHOKU UNIVERSITY, priority 2016, dated 2022).

Tests used:
[1] = tested on: pulmonary artery smooth muscle cells derived from patients with idiopathic pulmonary arterial hypertension (IPAH-PASMCs); assay: ability to suppress the proliferation of pulmonary artery smooth muscle cells from patients with pulmonary hypertension (MTT assay); type: cell-based, human; settings: for day 2/day 0 cell number ratio (MTT cell viability): 48 hours, IPAH-PASMC line 1, 10% FBS control 1.40; for suppressive effect on the proliferation of pulmonary artery smooth muscle cells: same method as Example 1, data not shown
Protocol: The following compounds were used to assess the abilities of these compounds to suppress the proliferation of pulmonary artery smooth muscle cells from patients with pulmonary hypertension (IPAH-PASMC line: 1)
Those compounds were obtained by synthesis in the Faculty of Pharmaceutical Sciences, Tohoku University. Specifically, first, 66 μl each of pulmonary artery smooth muscle cells derived from patients with idiopathic pulmonary arterial hypertension (IPAH-PASMCs) suspended in a 10% FBS medium (DMEM supplemented with 10% FBS) were seeded in a 96-well plate at 50,000 cells/ml (day −1). 24 Hours after the cell seeding (the time point was defined as day 0), 33 μl each of 300 nM, 3 μM, and 15 μM solutions of CEL-1 to CEL-8, CEL-10, CEL-13 to CEL-15, and CEL-19 in 10% FBS containing 1% DMSO were added to the wells so that the final concentrations were 100 nM, 1 μM, and 5 μM, respectively. As a control, 33 μl of 10% FBS containing 1% DMSO was added in place of CEL-1 to CEL-8, CEL-10, CEL-13 to CEL-15, and CEL-19. On day 0 (immediately before the addition of each of CEL-1 to CEL-8, CEL-10, CEL-13 to CEL-15, and CEL-19), a cell viability was confirmed by performing CellTiter 96 (trademark) AQueous One Solution Cell Proliferation Assay, promega MTT assay. Further, 48 hours after the addition of each of CEL-1 to CEL-8, CEL-10, CEL-13 to CEL-15, and CEL-19 (day 2), the MTT assay was performed again to observe a change in cell viability. Thus, a cell proliferation-suppressing effect was assessed.
In addition, in the case where R^2 in the general formula (I) represents an alkyl group, in order to explore an association between the length of the alkyl group and a pulmonary artery smooth muscle cell proliferation-suppressing effect, a test on an ability to suppress the proliferation of the pulmonary artery smooth muscle cells from patients with pulmonary hypertension (IPAH-PASMC line:1) was performed three times, and the lengths of alkyl groups of the respective compounds and the results of stimulation with the compounds at a concentration of 5 μM for 48 hours (averages of day 2/day 0 cell number ratios) were shown graphically. A Pearson's correlation test was performed on the lengths of the alkyl groups and the day 2/day 0 cell number ratios. As a result, a significant correlation was found with a P-value of 0.0298.

[2] = biological target: zinc finger protein ZFC3H1 (Homo sapiens, UniProt O60293); settings: Non-patent Literature 2; cited from earlier work
Sequence of zinc finger protein ZFC3H1 (O60293 whole entry): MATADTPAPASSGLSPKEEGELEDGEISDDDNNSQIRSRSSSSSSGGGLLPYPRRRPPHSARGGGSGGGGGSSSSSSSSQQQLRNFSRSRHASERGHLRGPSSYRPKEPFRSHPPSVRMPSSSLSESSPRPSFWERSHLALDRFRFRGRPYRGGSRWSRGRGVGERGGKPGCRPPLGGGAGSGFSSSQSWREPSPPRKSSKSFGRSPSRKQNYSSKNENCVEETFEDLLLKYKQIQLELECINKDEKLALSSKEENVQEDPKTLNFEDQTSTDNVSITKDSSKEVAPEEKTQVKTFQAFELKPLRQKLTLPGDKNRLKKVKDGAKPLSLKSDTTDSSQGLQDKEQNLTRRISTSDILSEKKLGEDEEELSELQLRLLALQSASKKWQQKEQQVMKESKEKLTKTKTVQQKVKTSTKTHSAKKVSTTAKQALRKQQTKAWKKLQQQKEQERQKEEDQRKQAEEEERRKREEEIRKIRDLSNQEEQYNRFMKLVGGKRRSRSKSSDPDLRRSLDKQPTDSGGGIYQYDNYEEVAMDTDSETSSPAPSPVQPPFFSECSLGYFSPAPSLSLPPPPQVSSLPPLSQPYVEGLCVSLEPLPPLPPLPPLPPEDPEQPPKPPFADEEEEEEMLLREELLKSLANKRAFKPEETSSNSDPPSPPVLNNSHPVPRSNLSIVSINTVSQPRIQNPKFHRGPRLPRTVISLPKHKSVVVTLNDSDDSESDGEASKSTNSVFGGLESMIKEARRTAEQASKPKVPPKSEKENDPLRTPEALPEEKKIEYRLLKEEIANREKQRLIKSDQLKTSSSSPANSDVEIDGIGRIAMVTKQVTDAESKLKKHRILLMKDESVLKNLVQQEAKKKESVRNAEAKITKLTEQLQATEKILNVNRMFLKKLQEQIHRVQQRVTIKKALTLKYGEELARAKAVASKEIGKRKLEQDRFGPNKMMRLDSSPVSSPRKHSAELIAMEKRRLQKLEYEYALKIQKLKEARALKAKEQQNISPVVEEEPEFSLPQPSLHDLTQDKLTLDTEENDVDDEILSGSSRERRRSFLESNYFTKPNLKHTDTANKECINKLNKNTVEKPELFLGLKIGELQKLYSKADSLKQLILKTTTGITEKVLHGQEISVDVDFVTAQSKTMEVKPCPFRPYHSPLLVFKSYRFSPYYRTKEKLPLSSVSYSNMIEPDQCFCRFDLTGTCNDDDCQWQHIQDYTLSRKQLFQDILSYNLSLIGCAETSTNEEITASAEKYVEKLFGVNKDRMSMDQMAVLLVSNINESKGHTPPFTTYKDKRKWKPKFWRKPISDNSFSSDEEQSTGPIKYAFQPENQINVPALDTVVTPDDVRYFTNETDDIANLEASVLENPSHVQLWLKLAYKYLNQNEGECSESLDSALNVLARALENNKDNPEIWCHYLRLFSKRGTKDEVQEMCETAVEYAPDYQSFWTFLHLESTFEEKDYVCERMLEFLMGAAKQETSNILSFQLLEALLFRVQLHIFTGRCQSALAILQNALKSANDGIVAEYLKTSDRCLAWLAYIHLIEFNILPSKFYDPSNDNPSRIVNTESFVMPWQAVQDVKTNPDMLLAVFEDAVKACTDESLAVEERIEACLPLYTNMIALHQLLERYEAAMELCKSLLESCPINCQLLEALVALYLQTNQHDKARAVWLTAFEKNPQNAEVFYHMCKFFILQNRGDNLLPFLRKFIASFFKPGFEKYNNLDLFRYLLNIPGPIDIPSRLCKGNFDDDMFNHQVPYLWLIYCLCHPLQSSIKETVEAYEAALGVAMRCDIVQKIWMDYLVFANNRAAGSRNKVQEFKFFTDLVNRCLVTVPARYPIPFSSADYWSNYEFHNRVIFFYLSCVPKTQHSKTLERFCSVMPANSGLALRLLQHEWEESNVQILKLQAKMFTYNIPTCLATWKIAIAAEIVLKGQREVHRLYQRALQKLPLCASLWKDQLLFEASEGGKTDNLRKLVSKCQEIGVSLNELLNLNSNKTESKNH

[3] = tested on: transcription factor NF-κB; settings: Non-patent Literature 2 and 3; cited from earlier work
[4] = tested on: pulmonary artery smooth muscle cells; settings: previous report, Non-patent Literature 3; cited from earlier work
[5] = tested on: hypoxia-induced pulmonary hypertension mouse model; assay: hypoxia-induced pulmonary hypertension mouse model; type: in vivo, C57BL/6 mice; settings: 10 mg/kg/day continuous subcutaneous infusion
Protocol: Next, the therapeutic effect of CEL-3 on pulmonary hypertension was assessed in vivo. Specifically, the influence of CEL-3 on a hypoxia-induced pulmonary hypertension mouse model was investigated. The pulmonary hypertension mouse model was generated by breeding 9-week-old male C57BL/6 mice (n=14) in a hypoxic chamber having an oxygen concentration of from 8% to 12%. Before being housed in the hypoxic chamber, the mice were implanted with an osmotic pump containing CEL-3 dissolved with 50% DMSO, and were administered CEL-3 at 10 mg/kg/day by continuous subcutaneous infusion. The Vehicle group was administered a DMSO solution at the same concentration with an osmotic pump. The mice were bred in the hypoxic chamber for 3 weeks and then sacrificed to measure a right ventricular systolic pressure (RVSP) with a pressure catheter 1.2F (Transonic Scisense, US). In addition, after formalin fixation, the right ventricle and the left ventricle were separated to measure a right ventricle/(left ventricle plus septum) weight ratio RV/[LV+S]). Then, the extent of pulmonary hypertension was assessed on the basis of those results. The body weights of the Vehicle group and the CEL-3 administration group before the test were each 25.6±0.3 g. In addition, the body weights of the Vehicle group and the CEL-3 administration group after the test were 24.2±0.8 g and 23.9±0.7 g, respectively.

[6] = tested on: SU5416/hypoxia-induced pulmonary hypertension rat model; assay: SU5416/hypoxia-induced pulmonary hypertension rat model; type: in vivo, Sprague-Dawley rats; settings: 3 mg/kg intraperitoneally daily for 2 weeks
Protocol: The pulmonary hypertension rat model was generated by: subcutaneously injecting 6-week-old male Sprague-Dawley rats ([…]) with SU5416 at 20 mg/kg; and then breeding the rats in a hypoxic chamber having an oxygen concentration of from 8% to 12% for 3 weeks followed by breeding the rats under normoxia for 2 weeks. After the hypoxic stimulation for 3 weeks, the rats were intraperitoneally injected with CEL-3 dissolved with 10% DMSO at 3 mg/kg daily for 2 weeks. The Vehicle group was intraperitoneally injected with a DMSO solution at the same concentration. The rats were treated with CEL-3 for 2 weeks and then sacrificed to measure a right ventricular systolic pressure (RVSP) with a pressure catheter 1.6F (Transonic Scisense, US). In addition, after formalin fixation, the right ventricle and the left ventricle were separated to measure a right ventricle/(left ventricle plus septum) weight ratio (RV/[LV+S]). Then, the extent of pulmonary hypertension was assessed on the basis of those results. The body weights of the Control group, the Vehicle group, and the CEL-3 administration group before the test were 160.8±1.7 g, 163.4±2.5 g, and 158.9±1.9 g, respectively. In addition, the body weights of the Control group, the Vehicle group, and the CEL-3 administration group after the test were 355.4±5.1 g, 264.91±9.3 g, and 260.0±11.1 g, respectively.

[7] = final concentration 100 nm (so in the source)
[8] = 3 weeks hypoxia, vs control group (FIG. 3)

CCCCCCc1cc(Cl)c(O)c(C(=O)c2cc(Cl)c(Cl)[nH]2)c1O [CEL-1, celastramycin]
day 2/day 0 cell number ratio (MTT cell viability) ([1]; final concentration 1 μM): 0.83
day 2/day 0 cell number ratio (MTT cell viability) ([1]; final concentration 5 μM): 0.52
day 2/day 0 cell number ratio (MTT cell viability) [1, 7]: 1.46
binding to ZFC3H1 [2]: binds to a zinc finger protein ZFC3H1
NF-κB-inhibiting action [3]: inhibit signal transduction in which a transcription factor NF-κB is involved

O=C(c1cc(Cl)c(Cl)[nH]1)c1c(O)ccc(Cl)c1O [CEL-2]
day 2/day 0 cell number ratio (MTT cell viability) ([1]; final concentration 1 μM): 1.36
day 2/day 0 cell number ratio (MTT cell viability) ([1]; final concentration 5 μM): 0.87
day 2/day 0 cell number ratio (MTT cell viability) [1, 7]: 1.37

O=C(Nc1cc(C(F)(F)F)cc(C(F)(F)F)c1)c1cc(Cl)ccc1O [IMD-0354, N-[3,5-bis(trifluoromethyl)phenyl]-5-chloro-2-hydroxybenzamide, reference compound]
NF-κB-inhibiting action [3]: has an NF-κB-inhibiting action
suppression of proliferation of pulmonary artery smooth muscle cells [4]: suppresses the proliferation of pulmonary artery smooth muscle cells

CCCCCCCc1cc(Cl)c(O)c(C(=O)c2cc(Cl)c(Cl)[nH]2)c1O [CEL-6]
day 2/day 0 cell number ratio (MTT cell viability) ([1]; final concentration 1 μM): 0.77
day 2/day 0 cell number ratio (MTT cell viability) ([1]; final concentration 5 μM): 0.54
day 2/day 0 cell number ratio (MTT cell viability) [1, 7]: 1.23

CCCc1cc(Cl)c(O)c(C(=O)c2ccc(Br)[nH]2)c1O [CEL-14]
day 2/day 0 cell number ratio (MTT cell viability) ([1]; final concentration 1 μM): 1.35
day 2/day 0 cell number ratio (MTT cell viability) ([1]; final concentration 5 μM): 0.88
day 2/day 0 cell number ratio (MTT cell viability) [1, 7]: 1.37

CCCCCCc1cc(C)c(O)c(C(=O)c2cc(Cl)c(Cl)[nH]2)c1O [CEL-10]
day 2/day 0 cell number ratio (MTT cell viability) ([1]; final concentration 1 μM): 0.68
day 2/day 0 cell number ratio (MTT cell viability) ([1]; final concentration 5 μM): 0.48
day 2/day 0 cell number ratio (MTT cell viability) [1, 7]: 1.16

CCCCCCc1cc(Cl)c(O)c(C(=O)c2c[nH]c(Cl)c2Cl)c1O [CEL-19]
day 2/day 0 cell number ratio (MTT cell viability) ([1]; final concentration 1 μM): 1.24
day 2/day 0 cell number ratio (MTT cell viability) ([1]; final concentration 5 μM): 0.94
day 2/day 0 cell number ratio (MTT cell viability) [1, 7]: 1.31

Cc1ccc(S(=O)(=O)N[C@@H](CCCCN)C(=O)CCl)cc1.Cl [Nα-p-tosyl-L-lysine chloromethyl ketone hydrochloride, reference compound]
suppressive effect on the proliferation of pulmonary artery smooth muscle cells ([1]; final concentration 5 μM): not sufficiently suppressed

CCCCCCCCCCCCc1cc(Cl)c(O)c(C(=O)c2cc(Cl)c(Cl)[nH]2)c1O [CEL-8]
day 2/day 0 cell number ratio (MTT cell viability) ([1]; final concentration 1 μM): 0.74
day 2/day 0 cell number ratio (MTT cell viability) ([1]; final concentration 5 μM): 0.47
day 2/day 0 cell number ratio (MTT cell viability) [1, 7]: 1.13

CCCCCCc1cc(Br)c(O)c(C(=O)c2cc(Cl)c(Cl)[nH]2)c1O [CEL-15]
day 2/day 0 cell number ratio (MTT cell viability) ([1]; final concentration 1 μM): 0.78
day 2/day 0 cell number ratio (MTT cell viability) ([1]; final concentration 5 μM): 0.54
day 2/day 0 cell number ratio (MTT cell viability) [1, 7]: 1.26

CCCCCc1cc(Cl)c(O)c(C(=O)c2cc(Cl)c(Cl)[nH]2)c1O [CEL-5]
day 2/day 0 cell number ratio (MTT cell viability) ([1]; final concentration 1 μM): 0.79
day 2/day 0 cell number ratio (MTT cell viability) ([1]; final concentration 5 μM): 0.53
day 2/day 0 cell number ratio (MTT cell viability) [1, 7]: 1.25

CCCCCCc1cc(Cl)c(O)c(C(=O)c2cc(Br)c(Br)[nH]2)c1O [CEL-13]
day 2/day 0 cell number ratio (MTT cell viability) ([1]; final concentration 1 μM): 0.72
day 2/day 0 cell number ratio (MTT cell viability) ([1]; final concentration 5 μM): 0.51
day 2/day 0 cell number ratio (MTT cell viability) [1, 7]: 1.20

Cc1ccc(S(=O)(=O)N[C@@H](Cc2ccccc2)C(=O)CCl)cc1 [N-p-tosyl-L-phenylalanine chloromethyl ketone, reference compound]
suppressive effect on the proliferation of pulmonary artery smooth muscle cells ([1]; final concentration 5 μM): not sufficiently suppressed

CCCCc1cc(Cl)c(O)c(C(=O)c2cc(Cl)c(Cl)[nH]2)c1O [CEL-4]
day 2/day 0 cell number ratio (MTT cell viability) ([1]; final concentration 1 μM): 0.79
day 2/day 0 cell number ratio (MTT cell viability) ([1]; final concentration 5 μM): 0.53
day 2/day 0 cell number ratio (MTT cell viability) [1, 7]: 1.24

O=C(/C=C/c1ccc(O)c(O)c1)OCCc1ccccc1 [caffeic acid phenethyl ester, reference compound]
suppressive effect on the proliferation of pulmonary artery smooth muscle cells ([1]; final concentration 5 μM): not sufficiently suppressed

CCCCCCCCc1cc(Cl)c(O)c(C(=O)c2cc(Cl)c(Cl)[nH]2)c1O [CEL-7]
day 2/day 0 cell number ratio (MTT cell viability) ([1]; final concentration 1 μM): 0.84
day 2/day 0 cell number ratio (MTT cell viability) ([1]; final concentration 5 μM): 0.52
day 2/day 0 cell number ratio (MTT cell viability) [1, 7]: 1.27

Cc1cc(Cl)c(O)c(C(=O)c2cc(Cl)c(Cl)[nH]2)c1O [CEL-3]
day 2/day 0 cell number ratio (MTT cell viability) ([1]; final concentration 1 μM): 0.99
day 2/day 0 cell number ratio (MTT cell viability) ([1]; final concentration 5 μM): 0.81
day 2/day 0 cell number ratio (MTT cell viability) [1, 7]: 1.25
increase in right ventricle/(left ventricle plus septum) weight ratio (RV/[LV+S]) [5, 8]: suppressed
increase in right ventricular systolic pressure (RVSP) [5, 8]: suppressed
body weight after the test ([5]; 3 weeks, Vehicle group 24.2±0.8 g): 23.9 ± 0.7 g
increase in right ventricle/(left ventricle plus septum) weight ratio (RV/[LV+S]) ([6]; vs control group (FIG. 4)): suppressed
increase in right ventricular systolic pressure (RVSP) ([6]; vs control group (FIG. 4)): suppressed
body weight after the test ([6]; Vehicle group 264.91±9.3 g): 260.0 ± 11.1 g
